Assay results published in patent US11471484B2, “Fullerene and its use to maintain good health and to prolong the expected lifespan of mammals” (priority 2011, dated 2022).

Legend:
[1] = Pharmacokinetics and biodistribution of an oily solution after oral and intra-peritoneal administration in rats; assay type: in vivo, male Wistar rats
Procedure: Pharmacokinetic studies were carried out with male Wistar rats (weighing 200-220 g). Rats were housed in individual cages and maintained in an air-conditioned room (22-25° C.) on a 12 h light/dark cycle with water and food available. The rats were acclimated for 7 days and they were fasted overnight but with access to water, before treatment.
Under general anesthesia, a catheter was introduced into the rat right jugular vein, positioned subcutaneously with the tip in the inter-scapular region. The prepared rats were then allowed to recover for 24 h, and the blood catheters were flushed with 0.9% NaCl solution containing 20 I U/ml of heparin to avoid possible clot obstruction. Before Ceo administration, the rats were fasted overnight but with access to water. The same single dose of Ceo (4 mg/kg) was delivered orally, by a gavages needle, or intra-peritoneally to two groups of three rats. Blood (0.20 ml) was withdrawn via the canular prior to dosing (f=0) and at 15, 30, 60 min and then at 2, 4, 8, 10, 12, 24 and 48 h post-dosing. Antithrombin heparin (20 IU/ml) was added in each blood sample. After each blood collection 0.20 ml of sterile 0.9% NaCl solution were injected to the animal, to avoid hypovolemia. The rats were sacrificed 48 h after eo administration for organ collection (livers, spleens, and brains).
Consequently, the area under the curve (AUC) is about 5 times larger when Ceo is administered by i.p. route as compared to oral route.

[2] = test system: acute carbon tetrachloride intoxication in rats (free-radical-mediated liver injury); assay: C60-induced protection of the liver against acute toxicity of carbon tetrachloride in rats; assay type: in vivo; conditions: CCl4 model
Excerpt: Carbon tetrachloride is a classical hepatotoxicant that causes rapid liver damage progressing from steatosis to centrilobular necrosis. CCU intoxication in rodents is an important model far elucidation of the mechanism of action of hepatotoxic effects such as fatty degeneration, fibrosis, hepatocellular death, and carcinogenicity. These effects are consistent with the known induced metabolic activation of CCl4 to reactive intermediates, including CCl3″ and CCl02′ free radicals, and mobilization of intracellular calcium. Kupffer cells (liver resident macrophages) participate in the mechanism of toxicity of CCl4 in vivo by release of chemoattractants for neutrophils and a series of chemical mediators (cytokines). Both expression and synthesis of these cytokines are mainly modulated through redox-sensitive reactions. […] In a previous work, the effects of C60-pretreatments on acute carbon tetrachloride intoxication in rats, a classical model for studying free-radical-mediated liver injury was reported.

rats [3] = assay: Longevity and chronic toxicity study in rats, oral gavage; assay type: in vivo
Procedure: The rats were housed one per cage and acclimated for 14 days, before dosing. Three groups of 10 rats (10 months old, weighing 495±31 g) were administered daily for one week, then weekly until the end of the second month and then every two weeks until the end of the 7th month, by gavages with 1 ml of water or olive oil or Ceo dissolved in olive oil (0.8 mg/ml), respectively. The rats were weighed before each dosing. Routine observations following official recommendations (EC Commission Directive 2004/73/EC of 29 Apr. 2004 Adapting to Technical Progress for the Twenty-Ninth Time Council Directive 67/548/EEC on the Approximation of the Laws, Regulations and Administrative Provisions Relating to the Classification, Packaging and Labeling of Dangerous Substances. O.J. No. L1522004) were made on all animals inside and outside the cage once a day throughout the study for signs of departure from normal activity, morbidity and mortality.
This experiment was initiated after observing that Ceo is absorbed through oral administration. To study the chronic toxicity of Ceo we designed a protocol according to the general guidelines of US food and drug administration (Chronic Toxicity Studies with Rodents in Toxicological Principles for the Safety Assessment of Food Ingredients. Redbook 2000, revised July 2007, Chapter IV.C.5.a. IV.C.5.a.) with some modifications. […]

[4] = Dissolution of C60 in vegetable oil; assay type: physicochemical; conditions: in less than one week
Excerpt: (§1) Free radicals are constantly formed in vivo. Some of these molecules are physiologically useful, but they can also result in pathological oxidative stress to cells and tissues. Endogenous defences include both antioxidants and repairing systems. However, excess production of free radicals, their production in inappropriate relative amounts or deficiencies in endogenous defences can have deleterious effects. Free radicals can cause oxidative damage to lipids, DNA, bio molecules, rises in the concentration of intracellular calcium, as well as activation of proteases, nucleases and protein kinases. Considerable evidence supports the view that oxidative damage involving free radicals occurs in most, if not all, human diseases. Oxidative stress is now recognized as an important contributor to the development of many human diseases including liver fibrosis, ischemia-reperfusion, atherosclerosis, several neurological disorders and age-related cancer as well as to process of ageing. Thus antioxidants and systems that can protect against oxidative stress are needed to maintain health and prolong the expected lifespan in metazoans. This has led to attempts to develop additional antioxidants to supplement the antioxidant defences of cells as potential therapeutic agents. […]

mice = assay: Acute or sub-acute toxicity in mice; assay type: in vivo; conditions: large amounts administered
Excerpt: as §1

rats [5] = assay: Acute or sub-acute toxicity in rats; assay type: in vivo; conditions: large amounts administered
Excerpt: as §1

[6] = test system: acute carbon tetrachloride intoxication in rats (free-radical-mediated liver injury); conditions: CCl4 model, intra-peritoneal, aqueous suspension; cited from earlier work

For `c12c3c4c5c1c1c6c7c2c2c8c3c3c9c4c4c%10c5c5c1c1c6c6c%11c7c2c2c7c8c3c3c8c9c4c4c9c%10c5c5c1c1c6c6c%11c2c2c7c3c3c8c4c4c9c5c1c1c6c2c3c41` [[60]fullerene], the “area under the curve (AUC), i.p. route as compared to oral route” value ([1]; 4 mg/kg, i.p. versus oral) was “about 5 times”, the “distribution, brain barrier” value ([1]; 4 mg/kg, oral or i.p.) was “can cross the brain barrier” and the absorption and elimination ([1]; intraperitoneal or oral administration) was “absorbed and eliminated”. For the same molecule, the “activity in solution compared with suspension” value ([2]; compared with results of Nano Letters 2005) was “about 100 times”, the “time of effect after administration” value ([2]; fullerene in solution) was 24 h and the longevity (rats [3]; oral administration) was “increases significantly the longevity”. For the same molecule, the “behaviour or growth disorder” value (rats [3]; per os 1 ml of olive oil containing 0.8 mg C60 (FIG. 1)) was “No behaviour or growth disorder could be observed”, the “amount dissolved per g of oil” value ([4]; olive oil) was “up to 1 mg of C60 per g” and the “amount dissolved per g of oil” value ([4]; soybean oil) was “up to 1 mg of C60 per g”. The “acute or sub-acute toxicity” value (mice) was “no acute or sub-acute toxicity could be observed”, the “acute or sub-acute toxicity” value (rats [5]) was “no acute or sub-acute toxicity could be observed” and the “day of better protection after administration” value [6] was 14 days. For the same molecule, the most effective dose [6] was “about 2.5 g/kg of body-weight”.
